ChEMBL document CHEMBL3758156, “The importance of triazole scaffold in the development of anticonvulsant agents” (Eur J Med Chem, 2016)

Tests used:
[1] = Protective index, ratio of TD50 for neurotoxicity in ip dosed Kunming mouse to ED50 for anticonvulsant activity in ip dosed Kunming mouse; type: toxicity, organism-based; conditions: in vivo, read-out: PI
Mus musculus [2] = test: Anticonvulsant activity in ip dosed Kunming mouse assessed as protection against maximal electroshock-induced seizures […]; type: functional
Mus musculus [3] = test: Anticonvulsant activity in albino Swiss mouse assessed as protection against PTZ-induced seizures at 100 mg/kg, ip administered 2 hrs prior to PTZ injection measured after 60 mins; type: functional
Mus musculus [4] = test: Anticonvulsant activity in ip dosed Swiss mouse assessed as protection against maximal electroshock-induced seizures administered 30 mins prior to electrical stimulation by MES test; type: functional
[5] = Protective index, ratio of TD50 for neurotoxicity in ip dosed Swiss mouse by rotarod test to ED50 for anticonvulsant activity in ip dosed Swiss mouse by MES test; type: toxicity, organism-based; conditions: in vivo, read-out: Ratio TD50/ED50
Mus musculus [6] = test: Anticonvulsant activity in ip dosed Kunming mouse assessed as protection against maximal electroshock-induced seizures after 30 mins by MES test; type: functional; conditions: 0.5 h
Mus musculus [7] = test: Anticonvulsant activity in ip dosed C57BL/6 mouse assessed as protection against maximal electroshock-induced seizures measured at 30 mins interval over 4 hrs by MES test; type: functional; conditions: C57B/6, ip
[8] = Protective index, ratio of TD50 for neurotoxicity in ip dosed C57BL/6 mouse to ED50 for anticonvulsant activity in ip dosed C57BL/6 mouse; type: toxicity, organism-based, C57B/6; conditions: in vivo
Mus musculus [9] = test: Anticonvulsant activity in ip dosed NMRI mouse assessed as protection against PTZ-induced seizures administered 30 mins prior to PTZ injection measured after 30 mins; type: functional
Mus musculus [10] = test: Anticonvulsant activity in ip dosed Swiss mouse assessed as protection against PTZ-induced seizures administered 30 mins prior to PTZ challenge; type: functional
Mus musculus [11] = test: Anticonvulsant activity in po dosed CD1 mouse assessed as protection against strychnine-induced seizures administered 0.5 hr prior to strychnine challenge; type: functional
Mus musculus [12] = test: Anticonvulsant activity in lithium-pilocarpine NMRI mouse model assessed as inhibition of pilocarpine-induced seizures at 10 mg/kg, ip administered 30 mins prior to pilocarpine injection measured for 60 mins; type: functional
[13] = Neurotoxicity in ip dosed Kunming mouse after 15 mins by rotarod test; type: toxicity, organism-based; conditions: in vivo
Mus musculus [14] = test: Anticonvulsant activity in ip dosed C57BL/6 mouse assessed as protection against maximal electroshock-induced seizures measured at 5 secs intervals over 4 hrs by MES test; type: functional; conditions: C57B/6, ip
Mus musculus [15] = test: Anticonvulsant activity in BALB/c mouse assessed as protection against maximal electroshock-induced seizures at 30 mg/kg, po after 1 hr by MES test; type: functional
Mus musculus [16] = test: Anticonvulsant activity in mouse assessed as protection against maximal electroshock-induced seizures at 50 and 100 mg/kg by MES test; type: functional
Mus musculus [17] = test: Anticonvulsant activity in ip dosed Swiss mouse assessed as protection against strychnine-induced tonic extensor after 30 mins; type: functional; conditions: 0.5 h
Mus musculus [18] = test: Anticonvulsant activity in NMRI mouse assessed as protection against PTZ-induced seizures at 100 mg/kg, ip administered 30 mins prior to PTZ injection measured for 30 mins; type: functional
Mus musculus [19] = test: Anticonvulsant activity in NMRI mouse assessed as protection against maximal electroshock-induced seizures at 100 mg/kg, ip by MES test; type: functional
[20] = Protective index, ratio of TD50 for neurotoxicity in ip dosed Swiss mouse to ED50 for anticonvulsant activity in ip dosed Swiss mouse; type: toxicity, organism-based; conditions: in vivo, read-out: Ratio TD50/ED50
[21] = Neurotoxicity in ip dosed C57BL/6 mouse after 30 mins by rotarod test; type: toxicity, organism-based, C57B/6; conditions: in vivo

For `Clc1ccc(C2=Nn3cnnc3SC2)cc1`, the selectivity ratio [1] was 6.5 and the ED50 (Mus musculus [2]) was 40.9 mg/kg.

Work on `CC1=NNC(=O)/C1=N\Nc1ccc(-c2n[nH]c(=O)n2-c2ccccc2)cc1` yielded an Activity (Mus musculus [3]) of 30%.

With `CCCCCCCOc1nn2cnnc2c2ccccc12` the ED50 (Mus musculus [4]) was 11 mg/kg and the selectivity ratio [5] was 8.

In the case of `CCCCCCCOc1nncn1-c1ccc(OCCCCCC)cc1`, the ED50 (Mus musculus [6]) was 37.3 mg/kg and the selectivity ratio [1] was 11.3.

Work on `Clc1ccc(Oc2nn3cnnc3c3ccccc23)cc1` yielded an ED50 (Mus musculus [4]) of 7.1 mg/kg and a selectivity ratio [5] of 5.2.

For `CCCCCCCOc1cc(-c2ccccc2)nc2ncnn12`, the ED50 (Mus musculus [2]) was 84.9 mg/kg.

`CCCCCCOc1ccc2c(c1)c(-c1ccccc1)cc1nncn12` gave an ED50 (Mus musculus [7]) of 6.5 mg/kg and a selectivity ratio ([8]; read-out: PI) of 35.1.

For `Nc1nnc(-c2ccc(Cl)cc2Oc2ccccc2F)[nH]1`, the ED50 (Mus musculus [9]) was 1.4 mg/kg.

With `Cn1c(-c2ccccc2)nnc1S(C)(=O)=O` the ED50 (Mus musculus [10]) was 55 mg/kg and the ED50 (Mus musculus [11]) was 7.3 mg/kg.

With `CC1=NNC(=O)/C1=N\Nc1ccc(-c2n[nH]c(=S)n2-c2ccccc2)cc1` the Activity (Mus musculus [3]) was 30%.

For `O=C1c2ccccc2OCC1n1cncn1` (stereo unspecified), the inhibition in vivo at 10 mg/kg (Mus musculus [12]) was 49%.

`Clc1ccc(-c2nn3cnnc3s2)cc1` gave a selectivity ratio [1] of 10.8 and an ED50 (Mus musculus [2]) of 23.7 mg/kg.

With `Fc1ccccc1COc1ccc2c(c1)SCc1nncn1-2` the ED50 (Mus musculus [6]) was 17 mg/kg and the TD50 at 0.25 h [13] was 244 mg/kg.

`Fc1cccc(C2Cc3nncn3-c3ccccc32)c1` (stereo unspecified) showed an ED50 (Mus musculus [7]) of 27.4 mg/kg, a selectivity ratio ([8]; read-out: PI) of 3.33 and an ED50 (Mus musculus [14]) of 22 mg/kg.

Compound `Cn1c(SCc2ccccc2)nnc1-c1ccc(N)cc1` has an Activity (Mus musculus [15]) of 50%.

In the case of `CCn1c(S)nnc1-c1sc(-c2ccccc2)nc1C`, the Activity (Mus musculus [16]) was 80%.

Work on `Cc1nn2c(C(N)=O)nnc2cc1Cc1c(Cl)cccc1Cl` yielded an ED50 (Mus musculus [4]) of 12.5 mg/kg, an ED50 (Mus musculus [10]) of 91.1 mg/kg and an ED50 (Mus musculus [17]) of 62.9 mg/kg.

Work on `Clc1ccc(-c2nc(Cn3cncn3)cs2)cc1` yielded an Activity (Mus musculus [18]) of 100% and an Activity (Mus musculus [19]) of 100%.

`Fc1ccc(-n2c(-c3cccc(Cl)c3)n[nH]c2=S)cc1` showed a selectivity ratio [20] of 3.9.

In the case of `CCCCCCCOc1ccc2c(c1)CCc1nn(C(=O)CC)c(=O)n1-2`, the ED50 (Mus musculus [7]) was 8.2 mg/kg, the TD50 at 0.5 h [21] was 318 mg/kg and the selectivity ratio ([8]; read-out: Ratio TD50/ED50) was 39.

With `Nc1nnc(-c2ccc(Cl)cc2Oc2ccccc2Cl)[nH]1` the ED50 (Mus musculus [9]) was 12 mg/kg.
